Species on record: Rattus norvegicus
Assay type: toxicity, organism-based, Sprague-Dawley
Details: in vivo, po, route oral GAVAGE, vehicle 100 % SALINE; for ABSOLUTE EOSINOPHIL / ABSOLUTE LYMPHOCYTE / ABSOLUTE MONOCYTE / ABSOLUTE SEGMENTED NEUTROPHIL / BASOPHIL / EOSINOPHIL / ERYTHROCYTE COUNT / HEMATOCRIT / HEMOGLOBIN / LEUKOCYTE COUNT / LYMPHOCYTE / MEAN CORPUSCULAR HEMOGLOBIN / MEAN CORPUSCULAR HEMOGLOBIN CONCENTRATION / MEAN CORPUSCULAR VOLUME / MONOCYTE / NEUTROPHIL / NUCLEATED RED BLOOD CELLS / PLATELET COUNT: tissue Blood; for ALANINE AMINOTRANSFERASE / ALBUMIN / ALKALINE PHOSPHATASE / ASPARTATE AMINOTRANSFERASE / BLOOD UREA NITROGEN / CARBON DIOXIDE / CHLORIDE / CHOLESTEROL / CREATINE PHOSPHOKINASE / CREATININE / GLUCOSE / LACTATE DEHYDROGENASE / LIPASE / PHOSPHORUS / POTASSIUM / SODIUM / TOTAL BILIRUBIN / TOTAL PROTEIN / URIC ACID: tissue Plasma
[1] = 0 mg/kg, 6 h, vehicle control, dose level Control, time 0.25 day
[2] = 0 mg/kg, 24 h, vehicle control, dose level Control, time 1 day
[3] = 10 mg/kg, 6 h, dose level Low, time 0.25 day

Description: DrugMatrix - Regimen: Single

O=[As][O-].[Na+] [SODIUM ARSENITE]
ABSOLUTE EOSINOPHIL [1]: 24 CELLS/uL | ABSOLUTE LYMPHOCYTE [1]: 11958.17 CELLS/uL | ABSOLUTE MONOCYTE [1]: 398.83 CELLS/uL | ABSOLUTE SEGMENTED NEUTROPHIL [1]: 1252.33 CELLS/uL | BASOPHIL [1]: 0% | EOSINOPHIL [1]: 0.17% | ERYTHROCYTE COUNT [1]: 5.37 x10E6/uL | HEMATOCRIT [1]: 35.6% | HEMOGLOBIN [1]: 13.05 G/DL | LEUKOCYTE COUNT [1]: 13.63 x10E3/uL | LYMPHOCYTE [1]: 87.67% | MEAN CORPUSCULAR HEMOGLOBIN [1]: 24.28 pg | MEAN CORPUSCULAR HEMOGLOBIN CONCENTRATION [1]: 36.67 G/DL | MEAN CORPUSCULAR VOLUME [1]: 66.28 fL | MONOCYTE [1]: 2.83% | NEUTROPHIL [1]: 9.33% | NUCLEATED RED BLOOD CELLS [1]: 0 /100WBC | PLATELET COUNT [1]: 947.83 x10E3/uL | ALANINE AMINOTRANSFERASE [1]: 51 u/L | ALBUMIN [1]: 4.02 G/DL | ALKALINE PHOSPHATASE [1]: 312.33 u/L | ASPARTATE AMINOTRANSFERASE [1]: 98.17 u/L | BLOOD UREA NITROGEN [1]: 9.5 mg/dL | CARBON DIOXIDE [1]: 18.83 mmol/L | CHLORIDE [1]: 103.5 MEQ/L | CHOLESTEROL [1]: 69.5 mg/dL | CREATINE PHOSPHOKINASE [1]: 580.17 u/L | CREATININE [1]: 0.53 mg/dL | GLUCOSE [1]: 175.67 mg/dL | LACTATE DEHYDROGENASE [1]: 295.5 u/L | LIPASE [1]: 8.17 u/L | PHOSPHORUS [1]: 14.12 mg/dL | POTASSIUM [1]: 5.77 MEQ/L | SODIUM [1]: 144.13 MEQ/L | TOTAL BILIRUBIN [1]: 0.12 mg/dL | TOTAL PROTEIN [1]: 4.87 G/DL | URIC ACID [1]: 2.25 mg/dL | ABSOLUTE EOSINOPHIL [2]: 0 CELLS/uL | ABSOLUTE LYMPHOCYTE [2]: 12232.83 CELLS/uL | ABSOLUTE MONOCYTE [2]: 20.33 CELLS/uL | ABSOLUTE SEGMENTED NEUTROPHIL [2]: 780.17 CELLS/uL | BASOPHIL [2]: 0% | EOSINOPHIL [2]: 0% | ERYTHROCYTE COUNT [2]: 5.18 x10E6/uL | HEMATOCRIT [2]: 33.48% | HEMOGLOBIN [2]: 13.22 G/DL | LEUKOCYTE COUNT [2]: 13.03 x10E3/uL | LYMPHOCYTE [2]: 93.33% | MEAN CORPUSCULAR HEMOGLOBIN [2]: 25.57 pg | MEAN CORPUSCULAR HEMOGLOBIN CONCENTRATION [2]: 39.52 G/DL | MEAN CORPUSCULAR VOLUME [2]: 64.65 fL | MONOCYTE [2]: 0.17% | NEUTROPHIL [2]: 6.5% | NUCLEATED RED BLOOD CELLS [2]: 0 /100WBC | PLATELET COUNT [2]: 931.5 x10E3/uL | ALANINE AMINOTRANSFERASE [2]: 60.83 u/L | ALBUMIN [2]: 4.18 G/DL | ALKALINE PHOSPHATASE [2]: 283.33 u/L | ASPARTATE AMINOTRANSFERASE [2]: 80.5 u/L | BLOOD UREA NITROGEN [2]: 11.83 mg/dL | CARBON DIOXIDE [2]: 35.33 mmol/L | CHLORIDE [2]: 98.5 MEQ/L | CHOLESTEROL [2]: 80 mg/dL | CREATINE PHOSPHOKINASE [2]: 181.83 u/L | CREATININE [2]: 0.2 mg/dL | GLUCOSE [2]: 142.67 mg/dL | LACTATE DEHYDROGENASE [2]: 65.5 u/L | LIPASE [2]: 9.83 u/L | PHOSPHORUS [2]: 9.82 mg/dL | POTASSIUM [2]: 5.69 MEQ/L | SODIUM [2]: 143.35 MEQ/L | TOTAL BILIRUBIN [2]: 0.15 mg/dL | TOTAL PROTEIN [2]: 6.2 G/DL | URIC ACID [2]: 0.42 mg/dL | ABSOLUTE EOSINOPHIL [3]: 25.17 CELLS/uL | ABSOLUTE LYMPHOCYTE [3]: 12416.17 CELLS/uL | ABSOLUTE MONOCYTE [3]: 214.33 CELLS/uL | ABSOLUTE SEGMENTED NEUTROPHIL [3]: 1561 CELLS/uL | BASOPHIL [3]: 0% | EOSINOPHIL [3]: 0.17% | ERYTHROCYTE COUNT [3]: 5.72 x10E6/uL | HEMATOCRIT [3]: 37.97% | HEMOGLOBIN [3]: 13.92 G/DL | LEUKOCYTE COUNT [3]: 14.22 x10E3/uL | LYMPHOCYTE [3]: 87.33% | MEAN CORPUSCULAR HEMOGLOBIN [3]: 24.38 pg | MEAN CORPUSCULAR HEMOGLOBIN CONCENTRATION [3]: 36.67 G/DL | MEAN CORPUSCULAR VOLUME [3]: 66.45 fL | MONOCYTE [3]: 1.5% | NEUTROPHIL [3]: 11% | NUCLEATED RED BLOOD CELLS [3]: 0 /100WBC | PLATELET COUNT [3]: 1120 x10E3/uL | ALANINE AMINOTRANSFERASE [3]: 87.17 u/L | ALBUMIN [3]: 4.02 G/DL | ALKALINE PHOSPHATASE [3]: 245.5 u/L | ASPARTATE AMINOTRANSFERASE [3]: 141.33 u/L | BLOOD UREA NITROGEN [3]: 12.83 mg/dL | CARBON DIOXIDE [3]: 19 mmol/L | CHLORIDE [3]: 104 MEQ/L | CHOLESTEROL [3]: 63.17 mg/dL | CREATINE PHOSPHOKINASE [3]: 934.5 u/L | CREATININE [3]: 0.27 mg/dL | GLUCOSE [3]: 184.33 mg/dL | LACTATE DEHYDROGENASE [3]: 393.33 u/L | LIPASE [3]: 8.83 u/L | PHOSPHORUS [3]: 14.3 mg/dL | POTASSIUM [3]: 6.23 MEQ/L | SODIUM [3]: 142.98 MEQ/L | TOTAL BILIRUBIN [3]: 0.12 mg/dL | TOTAL PROTEIN [3]: 5.28 G/DL | URIC ACID [3]: 2.03 mg/dL

From ChEMBL document CHEMBL3885881, “DrugMatrix”
